Measured values from patent publication EP3046573B1, “AMYLIN ANALOGUES” (Zealand Pharma A/S, priority 2013, dated 2015).
Numbered stars: 1 amine (or outer) side, 2 acyl side, 3 side chain; on linkers, the order of the positions; unused ones are H or OH. Bridge positions count the residues as written; N and C are the ends. Square brackets hold non-standard residues; d marks the D form. Peptide text beside a SMILES is read from it. * marks the point of attachment. C20 diacid = O=C(O)CCCCCCCCCCCCCCCCCCC(=O)*; Pro(4R-NH2) = N[C@H]1CN[C@H](C(=O)O)C1; γGlu = O=C(O)[C@H](CCC(=O)[*:2])N[*:1]; Hyp = O=C(O)[C@@H]1C[C@@H](O)CN1; NMeI = CC[C@H](C)[C@H](NC)C(=O)O; Sar = CNCC(=O)O

Test: Assessment of chemical stability: normalized purity by RP-HPLC after incubation at 40 °C
Type: physicochemical
Settings: normalized purity (T=0 set to 100), 0.2 mg/ml; for Chem. stability; 7 days, 40°C pH 4: pH 4, 7 days; for Chem. stability; 7 days, 40°C pH 7.5: pH 7.5, 7 days; for Chem. stability; 7 days, 40°C pH 9: pH 9, 7 days
Description: Samples of each test peptide were dissolved in MilliQ™ water, and the pH of the solution was adjusted to pH 4, pH 7.5 or pH 9, respectively, using either HCI or NaOH. The final peptide concentration was 0.2 mg/ml. Samples were placed in glass vials and incubated at 40 °C. The samples were analyzed by RP-HPLC on a C8 column with gradient elution using an ammonium formate/water eluent system, or on a C18 column with gradient elution using a trifluoroacetic acid/water eluent system. The area-percentage (area-%) of the main peak after incubation time T = t (relative to time T = 0) was determined by UV spectroscopy at 220 nm.
The purity was first determined as follows: Purity(area−%) = (area of main peak/total area of all peaks) × 100. [formula]
The purity was then normalized between time points by setting purity at time 0 (T=0) to 100 for each pH value for a given peptide, as follows: Normalised area−%at time t(T = t) = [area−%(T = t)/area−%(T = 0)] × 100. [formula]
The normalized purity values in Table 2 were determined after 7 days of incubation. Table 2. EC50, chemical stability and fibrillation data for compounds of the invention

| Compound | Chem. stability; 7 days, 40°C pH 4 [area-%] | Chem. stability; 7 days, 40°C pH 7.5 [area-%] | Chem. stability; 7 days, 40°C pH 9 [area-%] |
| --- | --- | --- | --- |
| CC[C@H](C)[C@@H](C(=O)N[C@@H](CC(C)C)C(=O)N[C@@H](CO)C(=O)N[C@@H](CO)C(=O)N[C@H](C(=O)N[C@@H](CC(N)=O)C(=O)N[C@H](C(=O)NCC(=O)N[C@@H](CO)C(=O)N[C@@H](CC(N)=O)C(=O)N[C@H](C(=O)N1CCC[C@H]1C(N)=O)[C@@H](C)O)C(C)C)[C@@H](C)O)N(C)C(=O)[C@H](C)NC(=O)CN(C)C(=O)[C@H](Cc1ccccc1)NC(=O)[C@H](CC(N)=O)NC(=O)[C@H](CC(N)=O)NC(=O)[C@H](CO)NC(=O)[C@H](CO)NC(=O)[C@H](CCCNC(=N)N)NC(=O)[C@H](Cc1c[nH]cn1)NC(=O)[C@H](CC(C)C)NC(=O)[C@H](Cc1ccccc1)NC(=O)[C@H](CCC(=O)O)NC(=O)[C@H](C)NC(=O)[C@H](CC(C)C)NC(=O)[C@H](CCCNC(=N)N)NC(=O)[C@H](CCC(N)=O)NC(=O)[C@@H](NC(=O)[C@H](C)NC(=O)[C@@H]1CSSC[C@H](NC(=O)[C@H](Cc2c[nH]c3ccccc23)NC(=O)[C@H](CCCNC(=N)N)NC(=O)CC[C@H](NC(=O)CCCCCCCCCCCCCCCCCCC(=O)O)C(=O)O)C(=O)N[C@@H](CC(N)=O)C(=O)N[C@@H]([C@@H](C)O)C(=O)N[C@@H](C)C(=O)N[C@@H]([C@@H](C)O)C(=O)N1)[C@@H](C)O [Compound 174, [19CD]-isoGlu-RWC()NTATC()ATQRLAEFLHRSSNNF-Gly(Me)-A-Ile(Me)-LSSTNVGSNTP-NH2] ({C20 diacid-γGlu}-RWCNTATCATQRLAEFLHRSSNNF[Sar]A[NMeI]LSSTNVGSNTP-NH2; disulfide 3-8) | 92 | 31 | 39 |
| CC[C@H](C)[C@@H](C(=O)N[C@@H](CC(C)C)C(=O)N[C@@H](CO)C(=O)N[C@@H](CO)C(=O)N[C@H](C(=O)N[C@@H](CC(N)=O)C(=O)N[C@H](C(=O)NCC(=O)N[C@@H](CO)C(=O)N[C@@H](CC(N)=O)C(=O)N[C@H](C(=O)N1CCC[C@H]1C(N)=O)[C@@H](C)O)C(C)C)[C@@H](C)O)N(C)C(=O)[C@H](C)NC(=O)CN(C)C(=O)[C@H](Cc1ccccc1)NC(=O)[C@H](CC(N)=O)NC(=O)[C@H](CC(N)=O)NC(=O)[C@H](CO)NC(=O)[C@H](CO)NC(=O)[C@H](CCCNC(=N)N)NC(=O)[C@H](Cc1c[nH]cn1)NC(=O)[C@H](CC(C)C)NC(=O)[C@H](Cc1ccccc1)NC(=O)[C@H](CCC(=O)O)NC(=O)[C@H](C)NC(=O)[C@H](CC(C)C)NC(=O)[C@H](CCCNC(=N)N)NC(=O)[C@H](CCC(N)=O)NC(=O)[C@@H](NC(=O)[C@H](C)NC(=O)[C@@H]1CSSC[C@H](NC(=O)[C@H](CCCCN)NC(=O)[C@H](CCCCN)NC(=O)CC[C@H](NC(=O)CCCCCCCCCCCCCCCCCCC(=O)O)C(=O)O)C(=O)N[C@@H](CC(N)=O)C(=O)N[C@@H]([C@@H](C)O)C(=O)N[C@@H](C)C(=O)N[C@@H]([C@@H](C)O)C(=O)N1)[C@@H](C)O [Compound 87, [19CD]-isoGlu-KKC()NTATC()ATQRLAEFLHRSSNNF-Gly(Me)-A-Ile(Me)-LSSTNVGSNTP-NH2] ({C20 diacid-γGlu}-KKCNTATCATQRLAEFLHRSSNNF[Sar]A[NMeI]LSSTNVGSNTP-NH2; disulfide 3-8) | 63 | 39 | 40 |
| CC[C@H](C)[C@@H](C(=O)N[C@@H](CC(C)C)C(=O)N[C@@H](CO)C(=O)N[C@@H](CO)C(=O)N[C@H](C(=O)N[C@@H](CC(N)=O)C(=O)N[C@H](C(=O)NCC(=O)N[C@@H](CO)C(=O)N[C@@H](CC(N)=O)C(=O)N[C@H](C(=O)N1C[C@H](O)C[C@H]1C(N)=O)[C@@H](C)O)C(C)C)[C@@H](C)O)N(C)C(=O)[C@H](C)NC(=O)CN(C)C(=O)[C@H](Cc1ccccc1)NC(=O)[C@H](CC(N)=O)NC(=O)[C@H](CC(N)=O)NC(=O)[C@H](CO)NC(=O)[C@H](CO)NC(=O)[C@H](CCCNC(=N)N)NC(=O)[C@H](Cc1c[nH]cn1)NC(=O)[C@H](CC(C)C)NC(=O)[C@H](Cc1ccccc1)NC(=O)[C@H](CCC(=O)O)NC(=O)[C@H](C)NC(=O)[C@H](CC(C)C)NC(=O)[C@H](CCCNC(=N)N)NC(=O)[C@H](CCC(N)=O)NC(=O)[C@@H](NC(=O)[C@H](C)NC(=O)[C@@H]1CSSC[C@H](NC(=O)[C@H](CCCNC(=N)N)NC(=O)CC[C@H](NC(=O)CCCCCCCCCCCCCCCCCCC(=O)O)C(=O)O)C(=O)N[C@@H](CC(N)=O)C(=O)N[C@@H]([C@@H](C)O)C(=O)N[C@@H](C)C(=O)N[C@@H]([C@@H](C)O)C(=O)N1)[C@@H](C)O [Compound 105, [19CD]-isoGlu-RC()NTATC()ATQRLAEFLHRSSNNF-Gly(Me)-A-Ile(Me)-LSSTNVGSNT-Hyp-NH2] ({C20 diacid-γGlu}-RCNTATCATQRLAEFLHRSSNNF[Sar]A[NMeI]LSSTNVGSNT[Hyp]-NH2; disulfide 2-7) | 57 | 57 | 42 |
| CC[C@H](C)[C@@H](C(=O)N[C@@H](CC(C)C)C(=O)N[C@@H](CO)C(=O)N[C@@H](CO)C(=O)N[C@H](C(=O)N[C@@H](CC(N)=O)C(=O)N[C@H](C(=O)NCC(=O)N[C@@H](CO)C(=O)N[C@@H](CC(N)=O)C(=O)N[C@H](C(=O)N1C[C@H](N)C[C@H]1C(N)=O)[C@@H](C)O)C(C)C)[C@@H](C)O)N(C)C(=O)[C@H](C)NC(=O)CN(C)C(=O)[C@H](Cc1ccccc1)NC(=O)[C@H](CC(N)=O)NC(=O)[C@H](CC(N)=O)NC(=O)[C@H](CO)NC(=O)[C@H](CO)NC(=O)[C@H](CCCNC(=N)N)NC(=O)[C@H](Cc1c[nH]cn1)NC(=O)[C@H](CC(C)C)NC(=O)[C@H](Cc1ccccc1)NC(=O)[C@H](CCC(=O)O)NC(=O)[C@H](C)NC(=O)[C@H](CC(C)C)NC(=O)[C@H](CCCNC(=N)N)NC(=O)[C@H](CCC(N)=O)NC(=O)[C@@H](NC(=O)[C@H](C)NC(=O)[C@@H]1CSSC[C@H](NC(=O)[C@H](CCCNC(=N)N)NC(=O)CC[C@H](NC(=O)CCCCCCCCCCCCCCCCCCC(=O)O)C(=O)O)C(=O)N[C@@H](CC(N)=O)C(=O)N[C@@H]([C@@H](C)O)C(=O)N[C@@H](C)C(=O)N[C@@H]([C@@H](C)O)C(=O)N1)[C@@H](C)O [Compound 110, [19CD]-isoGlu-RC()NTATC()ATQRLAEFLHRSSNNF-Gly(Me)-A-Ile(Me)-LSSTNVGSNT-Apr-NH2] ({C20 diacid-γGlu}-RCNTATCATQRLAEFLHRSSNNF[Sar]A[NMeI]LSSTNVGSNT[Pro(4R-NH2)]-NH2; disulfide 2-7) | 74 | 66 | 59 |
